# Test results reported in PubChem BioAssay (NCI).
#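 Exposure lasted 48 hours, with cells grown in 96-well plates and compounds tested at five concentrations. GI50 marks 50% less growth. Definition used: TGI = concentration required for complete inhibition of growth.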
# What was measured:
# Assay in all cases: NCI anticancer screen, dose series, 48 h
# 786-0 renal = tested on: 786-0 renal
# A498 renal = tested on: A498 renal
# A549 NSCLC = tested on: A549 NSCLC
# ACHN renal = tested on: ACHN renal
# BT-549 breast = tested on: BT-549 breast
# CAKI-1 renal = tested on: CAKI-1 renal
# CCRF-CEM leukemia = tested on: CCRF-CEM leukemia
# COLO 205 colon = tested on: COLO 205 colon
# DU-145 prostate = tested on: DU-145 prostate
# HCC-2998 colon = tested on: HCC-2998 colon
# HCT-116 colon = tested on: HCT-116 colon
# HCT-15 colon = tested on: HCT-15 colon
# HL-60(TB) leukemia = tested on: HL-60(TB) leukemia
# HOP-62 NSCLC = tested on: HOP-62 NSCLC
# HOP-92 NSCLC = tested on: HOP-92 NSCLC
# HS 578T breast = tested on: HS 578T breast
# HT29 colon = tested on: HT29 colon
# IGROV1 ovarian = tested on: IGROV1 ovarian
# K-562 leukemia = tested on: K-562 leukemia
# KM12 colon = tested on: KM12 colon
# LOX IMVI melanoma = tested on: LOX IMVI melanoma
# M14 melanoma = tested on: M14 melanoma
# MALME-3M melanoma = tested on: MALME-3M melanoma
# MCF7 breast = tested on: MCF7 breast
# MDA-MB-231 breast = tested on: MDA-MB-231 breast
# MDA-MB-435 = tested on: MDA-MB-435
# MDA-N = tested on: MDA-N
# MOLT-4 leukemia = tested on: MOLT-4 leukemia
# NCI-H226 lung = tested on: NCI-H226 lung
# NCI-H23 lung = tested on: NCI-H23 lung
# NCI-H460 lung = tested on: NCI-H460 lung
# NCI-H522 lung = tested on: NCI-H522 lung
# NCI/ADR-RES ovarian = tested on: NCI/ADR-RES ovarian
# OVCAR-3 ovarian = tested on: OVCAR-3 ovarian
# OVCAR-4 ovarian = tested on: OVCAR-4 ovarian
# OVCAR-5 ovarian = tested on: OVCAR-5 ovarian
# OVCAR-8 ovarian = tested on: OVCAR-8 ovarian
# PC-3 prostate = tested on: PC-3 prostate
# RPMI-8226 leukemia = tested on: RPMI-8226 leukemia
# RXF 393 renal = tested on: RXF 393 renal
# SF-268 CNS = tested on: SF-268 CNS
# SF-295 CNS = tested on: SF-295 CNS
# SF-539 CNS = tested on: SF-539 CNS
# SK-MEL-2 melanoma = tested on: SK-MEL-2 melanoma
# SK-MEL-28 melanoma = tested on: SK-MEL-28 melanoma
# SK-MEL-5 melanoma = tested on: SK-MEL-5 melanoma
# SK-OV-3 ovarian = tested on: SK-OV-3 ovarian
# SN12C renal = tested on: SN12C renal
# SNB-19 CNS = tested on: SNB-19 CNS
# SNB-75 CNS = tested on: SNB-75 CNS
# SW-620 colon = tested on: SW-620 colon
# T-47D breast = tested on: T-47D breast
# TK-10 renal = tested on: TK-10 renal
# U251 CNS = tested on: U251 CNS
# UACC-257 melanoma = tested on: UACC-257 melanoma
# UACC-62 melanoma = tested on: UACC-62 melanoma
# UO-31 renal = tested on: UO-31 renal
# EKVX NSCLC = tested on: EKVX NSCLC
structure (smiles),measurement,setting,value
Nc1ncnc2c1cnn2Cc1ccc(Cl)cc1,GI50,786-0 renal,> 100 µM
same,TGI,786-0 renal,> 100 µM
same,TGI,A498 renal,68.6 µM
same,TGI,A549 NSCLC,> 100 µM
same,TGI,ACHN renal,> 100 µM
same,GI50,BT-549 breast,72.1 µM
same,TGI,BT-549 breast,> 100 µM
same,GI50,CAKI-1 renal,31.8 µM
same,TGI,CAKI-1 renal,> 100 µM
same,TGI,CCRF-CEM leukemia,> 100 µM
same,TGI,COLO 205 colon,> 100 µM
same,TGI,DU-145 prostate,> 100 µM
same,TGI,HCC-2998 colon,> 100 µM
same,TGI,HCT-116 colon,> 100 µM
same,TGI,HCT-15 colon,> 100 µM
same,TGI,HL-60(TB) leukemia,> 100 µM
same,GI50,HOP-62 NSCLC,> 100 µM
same,TGI,HOP-62 NSCLC,> 100 µM
same,TGI,HOP-92 NSCLC,> 92.5 µM
same,TGI,HS 578T breast,> 100 µM
same,TGI,HT29 colon,> 100 µM
same,GI50,IGROV1 ovarian,> 100 µM
same,TGI,IGROV1 ovarian,> 100 µM
same,TGI,K-562 leukemia,> 100 µM
same,TGI,KM12 colon,> 100 µM
same,TGI,LOX IMVI melanoma,> 100 µM
same,TGI,M14 melanoma,> 100 µM
same,GI50,MALME-3M melanoma,> 100 µM
same,TGI,MALME-3M melanoma,> 100 µM
same,TGI,MCF7 breast,> 100 µM
same,TGI,MDA-MB-231 breast,> 100 µM
same,TGI,MDA-MB-435,> 100 µM
same,TGI,MDA-N,> 100 µM
same,TGI,MOLT-4 leukemia,> 100 µM
same,TGI,NCI-H226 lung,> 100 µM
same,TGI,NCI-H23 lung,> 100 µM
same,TGI,NCI-H460 lung,> 100 µM
same,TGI,NCI-H522 lung,> 100 µM
same,TGI,NCI/ADR-RES ovarian,> 100 µM
same,TGI,OVCAR-3 ovarian,> 100 µM
same,TGI,OVCAR-4 ovarian,> 100 µM
same,GI50,OVCAR-5 ovarian,44.8 µM
same,TGI,OVCAR-5 ovarian,> 100 µM
same,TGI,OVCAR-8 ovarian,> 100 µM
same,TGI,PC-3 prostate,> 100 µM
same,GI50,RPMI-8226 leukemia,> 100 µM
same,TGI,RPMI-8226 leukemia,> 100 µM
same,TGI,RXF 393 renal,> 100 µM
same,TGI,SF-268 CNS,> 100 µM
same,TGI,SF-295 CNS,> 100 µM
same,GI50,SF-539 CNS,67.4 µM
same,TGI,SF-539 CNS,> 100 µM
same,GI50,SK-MEL-2 melanoma,> 100 µM
same,TGI,SK-MEL-2 melanoma,> 100 µM
same,GI50,SK-MEL-28 melanoma,74.8 µM
same,TGI,SK-MEL-28 melanoma,> 100 µM
same,TGI,SK-MEL-5 melanoma,> 100 µM
same,GI50,SK-OV-3 ovarian,> 100 µM
same,TGI,SK-OV-3 ovarian,> 100 µM
same,TGI,SN12C renal,> 100 µM
same,TGI,SNB-19 CNS,> 100 µM
same,TGI,SNB-75 CNS,> 100 µM
same,TGI,SW-620 colon,> 100 µM
same,TGI,T-47D breast,> 100 µM
same,TGI,TK-10 renal,> 100 µM
same,TGI,U251 CNS,> 100 µM
same,TGI,UACC-257 melanoma,> 100 µM
same,GI50,UACC-62 melanoma,> 100 µM
same,TGI,UACC-62 melanoma,> 100 µM
same,TGI,UO-31 renal,> 100 µM
CC1(CC2=C(C(=O)NCCO[Si](C)(C)C(C)(C)C)C3(OCCO3)C2=O)OCCO1,TGI,786-0 renal,> 100 µM
same,TGI,A498 renal,> 100 µM
same,TGI,A549 NSCLC,> 100 µM
same,TGI,ACHN renal,> 100 µM
same,TGI,BT-549 breast,> 100 µM
same,TGI,CAKI-1 renal,> 100 µM
same,TGI,CCRF-CEM leukemia,> 100 µM
same,TGI,COLO 205 colon,> 100 µM
same,TGI,DU-145 prostate,> 100 µM
same,TGI,EKVX NSCLC,> 100 µM
same,TGI,HCT-116 colon,> 100 µM
same,TGI,HCT-15 colon,> 100 µM
same,TGI,HL-60(TB) leukemia,> 100 µM
same,TGI,HOP-62 NSCLC,> 100 µM
same,TGI,HOP-92 NSCLC,> 100 µM
same,TGI,HS 578T breast,> 100 µM
same,TGI,HT29 colon,> 100 µM
same,TGI,IGROV1 ovarian,> 100 µM
same,TGI,KM12 colon,> 100 µM
same,TGI,LOX IMVI melanoma,> 100 µM
same,TGI,M14 melanoma,> 100 µM
same,TGI,MALME-3M melanoma,72.7 µM
same,TGI,MCF7 breast,> 100 µM
same,TGI,MDA-MB-231 breast,> 100 µM
same,TGI,MDA-MB-435,> 100 µM
same,TGI,MDA-N,> 100 µM
same,TGI,MOLT-4 leukemia,> 100 µM
same,TGI,NCI-H226 lung,> 100 µM
same,TGI,NCI-H23 lung,> 100 µM
same,TGI,NCI-H460 lung,> 100 µM
same,TGI,NCI-H522 lung,93.7 µM
same,TGI,NCI/ADR-RES ovarian,> 100 µM
same,TGI,OVCAR-3 ovarian,> 100 µM
same,TGI,OVCAR-4 ovarian,> 100 µM
same,TGI,OVCAR-5 ovarian,> 100 µM
same,TGI,OVCAR-8 ovarian,> 100 µM
same,TGI,PC-3 prostate,> 100 µM
same,TGI,SF-268 CNS,> 100 µM
same,TGI,SF-295 CNS,> 100 µM
same,TGI,SF-539 CNS,> 100 µM
same,TGI,SK-MEL-2 melanoma,> 100 µM
same,TGI,SK-MEL-28 melanoma,> 100 µM
same,TGI,SK-MEL-5 melanoma,> 100 µM
same,TGI,SK-OV-3 ovarian,> 100 µM
same,TGI,SN12C renal,> 100 µM
same,TGI,SNB-19 CNS,> 100 µM
same,TGI,SNB-75 CNS,> 100 µM
same,TGI,SW-620 colon,> 100 µM
same,TGI,T-47D breast,> 100 µM
same,TGI,TK-10 renal,> 100 µM
same,TGI,U251 CNS,> 100 µM
same,TGI,UACC-257 melanoma,> 100 µM
same,TGI,UACC-62 melanoma,> 100 µM
same,TGI,UO-31 renal,> 100 µM
